Experimental data taken from ChEMBL document CHEMBL3046952, “Stereoselective synthesis of 2-amino-1-hydroxy-3-phenylpropylphosphonic acid” (1996).
Activity calls are given as the source filed them. The rule behind the calls is not given here.

Legend:
Cucumis sativus [1] = experiment: Inhibition of growth of Cucumis sativus (cucumber) hypocotyl at 1.5 mM relative to control; type: functional; details: read-out: GI
Lepidium sativum [2] = experiment: Inhibition of growth of Lepidium sativum hypocotyl at 0.15 mM relative to control; type: functional; details: read-out: GI
Lepidium sativum [3] = experiment: Inhibition of growth of Lepidium sativum hypocotyl at 0.05 mM relative to control; type: functional; details: read-out: GI
Lepidium sativum [4] = experiment: Inhibition of growth of Lepidium sativum root at 1.5 mM relative to control; type: functional; details: read-out: GI
Lepidium sativum [5] = experiment: Inhibition of growth of Lepidium sativum root at 0.5 mM relative to control; type: functional; details: read-out: GI
Lepidium sativum [6] = experiment: Inhibition of growth of Lepidium sativum root at 0.15 mM relative to control; type: functional; details: read-out: GI
Lepidium sativum [7] = experiment: Inhibition of growth of Lepidium sativum root at 0.05 mM relative to control; type: functional; details: read-out: GI
Cucumis sativus [8] = experiment: Inhibition of growth of Cucumis sativus (cucumber) root at 1.5 mM relative to control; type: functional; details: read-out: GI
Cucumis sativus [9] = experiment: Inhibition of growth of Cucumis sativus (cucumber) root at 0.5 mM relative to control; type: functional; details: read-out: GI
Cucumis sativus [10] = experiment: Inhibition of growth of Cucumis sativus (cucumber) root at 0.15 mM relative to control; type: functional; details: read-out: GI
Cucumis sativus [11] = experiment: Inhibition of growth of Cucumis sativus (cucumber) root at 0.05 mM relative to control; type: functional; details: read-out: GI
Lepidium sativum [12] = experiment: Inhibition of growth of Lepidium sativum hypocotyl at 1.5 mM relative to control; type: functional; details: read-out: GI
Lepidium sativum [13] = experiment: Inhibition of growth of Lepidium sativum hypocotyl at 0.5 mM relative to control; type: functional; details: read-out: GI
[14] = Inhibition of microsomal aminopeptidase
[15] = Inhibition of cytosolic aminopeptidase
Cucumis sativus [16] = experiment: Inhibition of growth of Cucumis sativus (cucumber) hypocotyl at 0.5 mM relative to control; type: functional; details: read-out: GI
Cucumis sativus [17] = experiment: Inhibition of growth of Cucumis sativus (cucumber) hypocotyl at 0.15 mM relative to control; type: functional; details: read-out: GI
Cucumis sativus [18] = experiment: Inhibition of growth of Cucumis sativus (cucumber) hypocotyl at 0.05 mM relative to control; type: functional; details: read-out: GI

SMILES	inhibition of growth at 1500 µM (Cucumis sativus [1])	inhibition of growth at 150 µM (Lepidium sativum [2])	inhibition of growth at 50 µM (Lepidium sativum [3])	inhibition of growth at 1500 µM (Lepidium sativum [4])	inhibition of growth at 500 µM (Lepidium sativum [5])	inhibition of growth at 150 µM (Lepidium sativum [6])	inhibition of growth at 50 µM (Lepidium sativum [7])	inhibition of growth at 1500 µM (Cucumis sativus [8])	inhibition of growth at 500 µM (Cucumis sativus [9])	inhibition of growth at 150 µM (Cucumis sativus [10])	inhibition of growth at 50 µM (Cucumis sativus [11])	inhibition of growth at 1500 µM (Lepidium sativum [12])	inhibition of growth at 500 µM (Lepidium sativum [13])	inhibition [14]	inhibition [15]	inhibition of growth at 500 µM (Cucumis sativus [16])	inhibition of growth at 150 µM (Cucumis sativus [17])	inhibition of growth at 50 µM (Cucumis sativus [18])
O=C(O)CNCP(=O)(O)O [GLYPHOSATE]	22%	16%	13%	93%	90%	88%	86%	84%	78%	71%	60%	44%	20%					
N[C@@H](Cc1ccccc1)[C@H](O)P(=O)(O)O (stereo in doubt)	64%	46%	22%	92%	87%	86%	82%	83%	81%	75%	69%	68%	64%	inactive	inactive	56%	45%	36%
N[C@H](Cc1ccccc1)[C@@H](O)P(=O)(O)O (stereo in doubt)	49%	9%	16%	88%	74%	66%	36%	80%	73%	68%	51%	54%		inactive	inactive	37%	33%	23%
